From US12209144B2, “Cyclic peptides as proprotein convertase subtilisin/kexin type 9 (PCSK9) inhibitors for the treatment of metabolic disorders” (Novartis AG, priority 2018, dated 2025)
pIC50: −log10 of the molar value. Bridge positions count the residues as written; N and C are the ends. Square brackets hold non-standard residues; d marks the D form. Peptide text beside a SMILES is read from it. Phe(3,4-Cl2) = N[C@@H](Cc1ccc(Cl)c(Cl)c1)C(=O)O; Bip = N[C@@H](Cc1ccc(-c2ccccc2)cc1)C(=O)O; Phe(3-F) = N[C@@H](Cc1cccc(F)c1)C(=O)O; NMeF = CN[C@@H](Cc1ccccc1)C(=O)O; NMeA = CN[C@@H](C)C(=O)O

Target: human PCSK9 (Homo sapiens, UniProt Q8NBP7)
Sequence (Q8NBP7 153-692): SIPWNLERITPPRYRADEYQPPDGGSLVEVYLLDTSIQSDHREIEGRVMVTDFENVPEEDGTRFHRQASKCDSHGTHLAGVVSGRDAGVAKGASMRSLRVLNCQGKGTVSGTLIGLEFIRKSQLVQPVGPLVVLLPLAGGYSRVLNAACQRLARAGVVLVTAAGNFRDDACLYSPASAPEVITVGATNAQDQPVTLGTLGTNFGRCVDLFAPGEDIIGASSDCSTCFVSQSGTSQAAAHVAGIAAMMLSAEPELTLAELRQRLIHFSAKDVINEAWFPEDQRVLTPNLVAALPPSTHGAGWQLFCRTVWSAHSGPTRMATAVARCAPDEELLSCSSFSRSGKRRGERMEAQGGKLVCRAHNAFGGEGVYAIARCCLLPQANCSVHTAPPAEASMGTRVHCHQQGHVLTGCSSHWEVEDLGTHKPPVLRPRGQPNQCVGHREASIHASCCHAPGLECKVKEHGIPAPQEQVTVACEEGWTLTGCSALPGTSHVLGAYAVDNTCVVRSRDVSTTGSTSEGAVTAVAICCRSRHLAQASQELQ
Sequence (Q8NBP7 31-152 partner limits assumed): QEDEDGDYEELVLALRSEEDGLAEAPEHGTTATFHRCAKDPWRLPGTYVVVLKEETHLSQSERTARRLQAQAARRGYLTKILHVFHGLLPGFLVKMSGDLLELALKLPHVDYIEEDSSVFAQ
Test: PCSK9 ligand binding assay (TR-FRET): interference with binding of human PCSK9 to human LDLR
Details: for Maximum % inhibition: PCSK9 FRET assay, efficacy (Amax), 0% = DMSO, 100% = 1 uM unlabeled human PCSK9; for pIC50: TR-FRET, Human PCSK9 Alexa Fluor 647 and Human LDLR extracellular domain-Europium Kryptate
Experimental: The activity of cyclic polypeptides according to the disclosure as PCSK9 can be assessed using a time resolved fluorescence resonance energy transfer (TR-FRET) assay. This time resolved fluorescence resonance energy transfer (TR-FRET) assay measures the ability of a cyclic polypeptides of the disclosure to interfere with the binding of human PCSK9 to human LDLR, providing measures of both potency (IC50) and efficacy (Amax).
Solutions of varying concentrations are prepared by diluting a cyclic polypeptide of the disclosure in dimethylsulfoxide (DMSO) and the resulting solutions are pipetted into a plate. DMSO is used as a negative control. An intermediate plate is prepared in by transferring a known amount of each polypeptide solution and of the control from the compound plate into a corresponding well containing assay buffer and mixing thoroughly. A third plate is then prepared to be used for the assay by adding Human PCSK9 Alexa Fluor 647, followed by a known amount of each solution from the intermediate plate. Unlabeled human PCSK9 in assay buffer containing DMSO is used as a positive control for the assay. Following incubation, Human LDLR extracellular domain-Europium Kryptate is added to each well of the assay plate and the resulting mixture is incubated for an additional period of time. The TR-FRET signal is measured and the FRET ratio (FRET/Europium) is used to calculate the IC50 and Amax of the cyclic polypeptides.
The PCSK9 binding of the cyclic polypeptides of the disclosure were measured using a time resolved fluorescence resonance energy transfer (TR-FRET) assay. This time resolved fluorescence resonance energy transfer (TR-FRET) assay measures the ability of a cyclic polypeptide of the disclosure to interfere with the binding of human PCSK9 to human LDLR, providing measures of both potency (IC50) and efficacy (Amax).
• Human PCSK9 • Human PCSK9 Alexa Fluor 647 • Human LDLR extracellular domain-Europium Kryptate • Proxi plate-low volume assay plate (PerkinElmer #6008280) • Greiner V-bottom (Greiner BioOne #781280) • Assay Buffer • 20 mM HEPES, pH 7.5 • 150 mM NaCl • 1 mM CaCl2 • 0.01% v/v Tween20 • 0.01% w/v BSA
A master compound plate was prepared in a Greiner V bottom plate by diluting cyclic polypeptides of the disclosure in dimethylsulfoxide to the correct concentration for the desired top concentration based on the desired final concentration: for a 30 uM final concentration the master plate concentration is 1.5 mM (68 uL DMSO+12 uL 10 mM of a cyclic polypeptide of the disclosure), for a 10 uM final concentration the master plate concentration is 0.5 mM (76 uL DMSO+4 uL 10 mM of a cyclic polypeptide of the disclosure), for a 3 uM final concentration the master plate concentration is 150 uM (69 uL DMSO+1 uL 10 mM a cyclic peptide of the disclosure). These solutions were pipetted into columns 1 and 11 of the compound plate. Threefold serial dilutions were generated in columns 2-10 and 12-20 of the compound plate by transferring 10 uL into 20 μL of DMSO. Columns 21 and 22 of the compound plate were negative controls containing DMSO alone.
An intermediate plate was generated in a Greiner V bottom plate by transferring 8 uL from each well of the master plate into a corresponding well containing 92 μL of assay buffer and mixing thoroughly.
A Proxi plate-low volume assay plate was used for the assay. To all wells of the plate was added 10 μL of 16 nM Human PCSK9 Alexa Fluor 647, followed by 5 uL from the intermediate plate. […] Following a 30 minute incubation, 5 μL of 4 nM Human LDLR extracellular domain-Europium Kryptate was added and the mixture was incubated for an additional 2 hours.
The TR-FRET signal was measured on an EnVision or PheraStar instrument with a […] delay, 330 nm excitation and 665 nm emission (FRET), and 330 nm excitation and 615 nm (Europium). The FRET ratio (FRET/Europium) was used for calculations. […]

SMILES	Maximum % inhibition [%]	pIC50
CC(C)[C@@H]1NC(=O)[C@H](Cc2ccccc2)NC(=O)CSC[C@@H](C(=O)NCC(N)=O)NC(=O)[C@@H]2CCCN2C(=O)[C@H](CO)NC(=O)[C@H](CCC(=O)O)NC(=O)[C@H](C)N(C)C(=O)[C@H](Cc2ccc(-c3ccccc3)cc2)NC(=O)[C@H](Cc2ccccc2)N(C)C(=O)[C@H](Cc2ccc(-c3ccccc3)cc2)NC(=O)[C@H]([C@@H](C)O)NC(=O)[C@H]([C@@H](C)O)NC(=O)[C@H](CO)NC1=O [Example 1-13, Ac*-F-V-S-T-T-B-(N-Me)F-B-(N-Me)A-E-S-P-C*-G-NH2] ({CH2CO}-FVSTT[Bip][NMeF][Bip][NMeA]ESPCG-NH2; thioether N-13)	86	
CC(C)[C@@H]1NC(=O)[C@H](Cc2ccccc2)NC(=O)CSC[C@@H](C(=O)NCC(N)=O)NC(=O)[C@@H]2CCCN2C(=O)[C@H](C)NC(=O)[C@H](CCC(=O)O)NC(=O)[C@H](C)N(C)C(=O)[C@H](Cc2ccc(-c3ccccc3)cc2)NC(=O)[C@H](Cc2ccccc2)N(C)C(=O)[C@H](C)NC(=O)[C@H]([C@@H](C)O)NC(=O)[C@H]([C@@H](C)O)NC(=O)[C@H](CC(=O)O)NC1=O [Example 1-16, Ac*-F-V-D-T-T-A-(N-Me)F-B-(N-Me)A-E-A-P-C*-G-NH2] ({CH2CO}-FVDTTA[NMeF][Bip][NMeA]EAPCG-NH2; thioether N-13)	91	
CC(C)[C@@H]1NC(=O)[C@H](Cc2ccccc2)NC(=O)CSC[C@@H](C(=O)NCC(N)=O)NC(=O)[C@@H]2CCCN2C(=O)[C@H](C)NC(=O)[C@H](CCC(N)=O)NC(=O)[C@H](C)N(C)C(=O)[C@H](Cc2ccc(-c3ccccc3)cc2)NC(=O)[C@H](Cc2ccccc2)N(C)C(=O)[C@H](C)NC(=O)[C@H]([C@@H](C)O)NC(=O)[C@H]([C@@H](C)O)NC(=O)[C@H](CC(N)=O)NC1=O [Example 1-18, Ac*-F-V-N-T-T-A-(N-Me)F-B-(N-Me)A-Q-A-P-C*-G-NH2] ({CH2CO}-FVNTTA[NMeF][Bip][NMeA]QAPCG-NH2; thioether N-13)	53	
CC(C)[C@@H]1NC(=O)[C@H](Cc2ccccc2)NC(=O)CSC[C@@H](C(=O)NCC(N)=O)NC(=O)[C@@H]2CCCN2C(=O)[C@H](CO)NC(=O)[C@@H]2CCCN2C(=O)[C@H](C)N(C)C(=O)[C@H](Cc2ccc(-c3ccccc3)cc2)NC(=O)[C@H](C)N(C)C(=O)[C@H](Cc2ccc(-c3ccccc3)cc2)NC(=O)[C@H]([C@@H](C)O)NC(=O)[C@H]([C@@H](C)O)NC(=O)[C@H](CO)NC1=O [Example 1-20, Ac*-F-V-S-T-T-B-(N-Me)A-B-(N-Me)A-P-S-P-C*-G-NH2] ({CH2CO}-FVSTT[Bip][NMeA][Bip][NMeA]PSPCG-NH2; thioether N-13)	35	
CC(C)[C@@H]1NC(=O)[C@H](Cc2ccccc2)NC(=O)CSC[C@@H](C(=O)NCC(N)=O)NC(=O)[C@@H]2CCCN2C(=O)[C@H](C)NC(=O)[C@H](CCC(=O)O)NC(=O)[C@H](C)N(C)C(=O)[C@H](Cc2ccc(-c3ccccc3)cc2)NC(=O)[C@H](Cc2ccccc2)N(C)C(=O)[C@H](C)NC(=O)[C@H]([C@@H](C)O)NC(=O)[C@H]([C@@H](C)O)NC(=O)[C@@H]2CCCN2C1=O [Example 1-21, Ac*-F-V-P-T-T-A-(N-Me)F-B-(N-Me)A-E-A-P-C*-G-NH2] ({CH2CO}-FVPTTA[NMeF][Bip][NMeA]EAPCG-NH2; thioether N-13)	81	
CC(C)[C@@H]1NC(=O)[C@H](Cc2ccccc2)NC(=O)CSC[C@@H](C(=O)NCC(N)=O)NC(=O)[C@@H]2CCCN2C(=O)[C@H](C)NC(=O)[C@H](CCCCN)NC(=O)[C@H](C)N(C)C(=O)[C@H](Cc2ccc(-c3ccccc3)cc2)NC(=O)[C@H](C)N(C)C(=O)[C@H](Cc2ccccc2)NC(=O)[C@H]([C@@H](C)O)NC(=O)[C@H]([C@@H](C)O)NC(=O)[C@H](C)NC1=O [Example 1-22, Ac*-F-V-A-T-T-F-(N-Me)A-B-(N-Me)A-K-A-P-C*-G-NH2] ({CH2CO}-FVATTF[NMeA][Bip][NMeA]KAPCG-NH2; thioether N-13)	49	7.92

Second part, the compound after the results:

Maximum % inhibition [%]	pIC50	SMILES
87		CC(C)[C@@H]1NC(=O)[C@H](Cc2ccccc2)NC(=O)CSC[C@@H](C(=O)NCC(N)=O)NC(=O)[C@@H]2CCCN2C(=O)[C@H](CO)NC(=O)[C@H](CCC(=O)O)NC(=O)[C@H](C)N(C)C(=O)[C@H](Cc2ccc(-c3ccccc3)cc2)NC(=O)[C@H](Cc2ccccc2)N(C)C(=O)[C@H](CO)NC(=O)[C@H]([C@@H](C)O)NC(=O)[C@H]([C@@H](C)O)NC(=O)[C@H](CO)NC1=O [Example 1-12, Ac*-F-V-S-T-T-S-(N-Me)F-B-(N-Me)A-E-S-P-C*-G-NH2] ({CH2CO}-FVSTTS[NMeF][Bip][NMeA]ESPCG-NH2; thioether N-13)
49		CC(C)[C@@H]1NC(=O)[C@H](Cc2ccccc2)NC(=O)CSC[C@@H](C(=O)NCC(N)=O)NC(=O)[C@@H]2CCCN2C(=O)[C@H](CCCNC(=N)N)NC(=O)[C@H](CC(=O)O)NC(=O)[C@H](C)N(C)C(=O)[C@H](Cc2ccc(Cl)c(Cl)c2)NC(=O)[C@H](C)N(C)C(=O)[C@H](Cc2ccc(-c3ccccc3)cc2)NC(=O)[C@H]([C@@H](C)O)NC(=O)[C@H]([C@@H](C)O)NC(=O)[C@H](CO)NC1=O [Example 1-14, Ac*-F-V-S-T-T-B-(N-Me)A-(3,4-diCl)F-(N-Me)A-D-R-P-C*-G-NH2] ({CH2CO}-FVSTT[Bip][NMeA][Phe(3,4-Cl2)][NMeA]DRPCG-NH2; thioether N-13)
53	7.92	CC(C)[C@@H]1NC(=O)[C@H](Cc2ccccc2)NC(=O)CSC[C@@H](C(=O)NCC(N)=O)NC(=O)[C@@H]2CCCN2C(=O)[C@H](CCCNC(=N)N)NC(=O)[C@H](CC(=O)O)NC(=O)[C@H](C)N(C)C(=O)[C@H](Cc2cccc(F)c2)NC(=O)[C@H](C)N(C)C(=O)[C@H](Cc2ccc(-c3ccccc3)cc2)NC(=O)[C@H]([C@@H](C)O)NC(=O)[C@H]([C@@H](C)O)NC(=O)[C@H](CO)NC1=O [Example 1-15, Ac*-F-V-S-T-T-B-(N-Me)A-(3-F)F-(N-Me)A-D-R-P-C*-G-NH2] ({CH2CO}-FVSTT[Bip][NMeA][Phe(3-F)][NMeA]DRPCG-NH2; thioether N-13)
91		CC(C)[C@@H]1NC(=O)[C@H](Cc2ccccc2)NC(=O)CSC[C@@H](C(=O)NCC(N)=O)NC(=O)[C@@H]2CCCN2C(=O)[C@H](CO)NC(=O)[C@H](CCC(=O)O)NC(=O)[C@H](C)N(C)C(=O)[C@H](Cc2ccc(-c3ccccc3)cc2)NC(=O)[C@H](C)N(C)C(=O)[C@H](Cc2ccccc2)NC(=O)[C@H]([C@@H](C)O)NC(=O)[C@H]([C@@H](C)O)NC(=O)[C@H](CC(=O)O)NC1=O [Example 1-17, Ac*-F-V-D-T-T-F-(N-Me)A-B-(N-Me)A-E-S-P-C*-G-NH2] ({CH2CO}-FVDTTF[NMeA][Bip][NMeA]ESPCG-NH2; thioether N-13)
38		CC(C)[C@@H]1NC(=O)[C@H](Cc2ccccc2)NC(=O)CSC[C@@H](C(=O)NCC(N)=O)NC(=O)[C@@H]2CCCN2C(=O)[C@H](CCCNC(=N)N)NC(=O)[C@H](CC(=O)O)NC(=O)[C@H](C)N(C)C(=O)[C@H](Cc2ccc(-c3ccccc3)cc2)NC(=O)[C@H](C)N(C)C(=O)[C@H](Cc2ccc(-c3ccccc3)cc2)NC(=O)[C@H]([C@@H](C)O)NC(=O)[C@H]([C@@H](C)O)NC(=O)[C@@H]2CCCN2C1=O [Example 1-19, Ac*-F-V-P-T-T-B-(N-Me)A-B-(N-Me)A-D-R-P-C*-G-NH2] ({CH2CO}-FVPTT[Bip][NMeA][Bip][NMeA]DRPCG-NH2; thioether N-13)
